In ChEMBL document CHEMBL1150977, “A quantitative analysis of kinase inhibitor selectivity” (Nat Biotechnol, 2008):

Target: Phosphatidylinositol 4,5-bisphosphate 3-kinase catalytic subunit alpha isoform (Homo sapiens, UniProt P42336, E545K)
Sequence (P42336 whole entry E545K, canonical isoform): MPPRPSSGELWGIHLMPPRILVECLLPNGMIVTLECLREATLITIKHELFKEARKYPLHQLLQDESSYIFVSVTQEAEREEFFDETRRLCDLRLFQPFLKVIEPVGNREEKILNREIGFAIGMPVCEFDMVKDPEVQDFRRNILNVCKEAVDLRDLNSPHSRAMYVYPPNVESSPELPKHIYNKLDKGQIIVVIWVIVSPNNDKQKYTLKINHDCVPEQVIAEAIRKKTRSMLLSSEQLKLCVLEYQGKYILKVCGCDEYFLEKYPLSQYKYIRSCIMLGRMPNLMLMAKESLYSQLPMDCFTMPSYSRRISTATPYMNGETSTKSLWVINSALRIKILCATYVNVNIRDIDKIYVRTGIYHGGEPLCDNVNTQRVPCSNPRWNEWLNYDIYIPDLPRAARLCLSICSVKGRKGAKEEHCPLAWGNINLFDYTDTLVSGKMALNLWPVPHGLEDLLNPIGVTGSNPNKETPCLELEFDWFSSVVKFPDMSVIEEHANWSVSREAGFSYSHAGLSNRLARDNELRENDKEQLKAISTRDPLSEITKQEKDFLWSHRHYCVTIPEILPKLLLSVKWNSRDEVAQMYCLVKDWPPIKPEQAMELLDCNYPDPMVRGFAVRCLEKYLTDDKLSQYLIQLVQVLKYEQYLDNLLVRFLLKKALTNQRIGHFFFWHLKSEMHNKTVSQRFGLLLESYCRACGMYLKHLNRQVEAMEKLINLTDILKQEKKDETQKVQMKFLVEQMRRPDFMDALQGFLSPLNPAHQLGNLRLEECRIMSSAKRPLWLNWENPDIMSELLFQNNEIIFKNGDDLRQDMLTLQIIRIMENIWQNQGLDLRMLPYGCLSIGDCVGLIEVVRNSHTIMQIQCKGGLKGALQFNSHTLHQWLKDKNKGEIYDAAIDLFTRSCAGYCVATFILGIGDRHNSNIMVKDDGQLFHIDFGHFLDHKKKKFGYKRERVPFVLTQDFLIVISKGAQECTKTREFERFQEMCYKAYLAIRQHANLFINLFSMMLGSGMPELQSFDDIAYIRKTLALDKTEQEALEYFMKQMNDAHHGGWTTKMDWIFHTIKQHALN

| SMILES | Kd [µM] |
| --- | --- |
| CCOc1cc2ncc(C#N)c(Nc3ccc(F)c(Cl)c3)c2cc1NC(=O)/C=C/CN(C)C [PELITINIB] | > 10 |
| Nc1nc(Nc2ccc(S(N)(=O)=O)cc2)nn1C(=O)c1c(F)cccc1F [JNJ-7706621] | > 10 |
| Oc1ccc(-c2nc(-c3ccncc3)c(-c3ccc(F)cc3)[nH]2)cc1 [SB-202190] | > 10 |
| NC(=O)c1ccc(-c2nc(-c3ccc4c(c3)OCO4)c(-c3ccccn3)[nH]2)cc1 [SB-431542] | > 10 |

Target: T1, Testis-specific serine/threonine-protein kinase 1 (Homo sapiens, UniProt Q9BXA7)
T1 sequence (Q9BXA7 whole entry): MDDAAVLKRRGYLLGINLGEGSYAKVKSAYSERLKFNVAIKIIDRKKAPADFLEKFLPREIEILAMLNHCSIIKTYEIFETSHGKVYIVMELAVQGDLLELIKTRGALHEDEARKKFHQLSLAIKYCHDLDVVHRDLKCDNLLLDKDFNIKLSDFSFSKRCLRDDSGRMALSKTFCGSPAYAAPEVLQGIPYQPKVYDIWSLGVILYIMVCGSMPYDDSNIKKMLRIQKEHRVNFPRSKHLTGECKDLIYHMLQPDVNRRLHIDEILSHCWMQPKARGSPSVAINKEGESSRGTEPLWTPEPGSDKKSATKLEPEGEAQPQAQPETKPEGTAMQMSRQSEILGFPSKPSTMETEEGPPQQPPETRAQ

| SMILES | Kd [µM] |
| --- | --- |
| CCOc1cc2ncc(C#N)c(Nc3ccc(F)c(Cl)c3)c2cc1NC(=O)/C=C/CN(C)C [PELITINIB] | > 10 |
| Nc1nc(Nc2ccc(S(N)(=O)=O)cc2)nn1C(=O)c1c(F)cccc1F [JNJ-7706621] | > 10 |
| Oc1ccc(-c2nc(-c3ccncc3)c(-c3ccc(F)cc3)[nH]2)cc1 [SB-202190] | > 10 |
| COCC(=O)NC/C=C/c1ccc2ncnc(Nc3ccc(Oc4ccc(C)nc4)c(C)c3)c2c1 [CP-724714] | > 10 |
| NC(=O)c1ccc(-c2nc(-c3ccc4c(c3)OCO4)c(-c3ccccn3)[nH]2)cc1 [SB-431542] | > 10 |

Target: Ribosomal protein S6 kinase alpha-6 (Homo sapiens, UniProt Q9UK32)
Sequence (Q9UK32 whole entry): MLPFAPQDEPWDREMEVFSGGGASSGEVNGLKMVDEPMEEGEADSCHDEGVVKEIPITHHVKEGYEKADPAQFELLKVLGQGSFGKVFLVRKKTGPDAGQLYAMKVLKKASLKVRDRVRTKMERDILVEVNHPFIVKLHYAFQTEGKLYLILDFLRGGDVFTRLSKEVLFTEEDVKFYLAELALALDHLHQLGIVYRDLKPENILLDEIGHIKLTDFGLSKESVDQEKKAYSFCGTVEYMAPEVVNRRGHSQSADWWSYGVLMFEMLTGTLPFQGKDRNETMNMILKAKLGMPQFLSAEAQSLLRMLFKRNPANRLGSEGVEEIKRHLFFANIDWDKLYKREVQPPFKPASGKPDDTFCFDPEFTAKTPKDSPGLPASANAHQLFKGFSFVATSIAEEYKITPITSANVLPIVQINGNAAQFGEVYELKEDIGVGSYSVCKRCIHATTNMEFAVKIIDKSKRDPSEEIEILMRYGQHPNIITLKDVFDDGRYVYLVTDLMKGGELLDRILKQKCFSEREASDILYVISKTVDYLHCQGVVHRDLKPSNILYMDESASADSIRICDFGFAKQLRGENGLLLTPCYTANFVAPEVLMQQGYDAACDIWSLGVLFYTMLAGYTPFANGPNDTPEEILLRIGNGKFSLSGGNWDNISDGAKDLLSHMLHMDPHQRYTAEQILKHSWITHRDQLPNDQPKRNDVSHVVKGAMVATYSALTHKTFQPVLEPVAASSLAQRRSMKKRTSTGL

| SMILES | Kd [µM] |
| --- | --- |
| CCOc1cc2ncc(C#N)c(Nc3ccc(F)c(Cl)c3)c2cc1NC(=O)/C=C/CN(C)C [PELITINIB] | > 10 |
| Oc1ccc(-c2nc(-c3ccncc3)c(-c3ccc(F)cc3)[nH]2)cc1 [SB-202190] | > 10 |
| COCC(=O)NC/C=C/c1ccc2ncnc(Nc3ccc(Oc4ccc(C)nc4)c(C)c3)c2c1 [CP-724714] | > 10 |

Target: T2, Myotonin-protein kinase (Homo sapiens, UniProt Q09013)
T2 sequence (Q09013 whole entry): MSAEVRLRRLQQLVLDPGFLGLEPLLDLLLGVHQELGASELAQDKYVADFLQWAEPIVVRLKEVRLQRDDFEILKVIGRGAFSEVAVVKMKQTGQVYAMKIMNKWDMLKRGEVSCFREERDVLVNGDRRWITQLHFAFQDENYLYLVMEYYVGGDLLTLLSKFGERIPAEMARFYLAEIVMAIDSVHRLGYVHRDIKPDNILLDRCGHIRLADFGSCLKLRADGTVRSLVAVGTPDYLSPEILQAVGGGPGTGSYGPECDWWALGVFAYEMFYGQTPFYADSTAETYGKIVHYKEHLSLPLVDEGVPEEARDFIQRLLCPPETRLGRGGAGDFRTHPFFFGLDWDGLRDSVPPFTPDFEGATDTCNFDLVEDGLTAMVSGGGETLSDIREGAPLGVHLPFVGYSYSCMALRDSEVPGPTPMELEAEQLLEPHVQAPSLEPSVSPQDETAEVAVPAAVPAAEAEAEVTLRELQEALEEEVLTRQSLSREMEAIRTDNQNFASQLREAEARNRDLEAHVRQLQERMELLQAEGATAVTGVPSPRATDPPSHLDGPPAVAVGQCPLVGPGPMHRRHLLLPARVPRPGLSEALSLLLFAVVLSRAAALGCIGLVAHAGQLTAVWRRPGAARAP

| SMILES | Kd [µM] |
| --- | --- |
| CCOc1cc2ncc(C#N)c(Nc3ccc(F)c(Cl)c3)c2cc1NC(=O)/C=C/CN(C)C [PELITINIB] | 0.059 |
| Oc1ccc(-c2nc(-c3ccncc3)c(-c3ccc(F)cc3)[nH]2)cc1 [SB-202190] | > 10 |
| COCC(=O)NC/C=C/c1ccc2ncnc(Nc3ccc(Oc4ccc(C)nc4)c(C)c3)c2c1 [CP-724714] | > 10 |
| NC(=O)c1ccc(-c2nc(-c3ccc4c(c3)OCO4)c(-c3ccccn3)[nH]2)cc1 [SB-431542] | > 10 |

Target: Vascular endothelial growth factor receptor 2 (Homo sapiens, UniProt P35968)
Sequence (P35968 whole entry): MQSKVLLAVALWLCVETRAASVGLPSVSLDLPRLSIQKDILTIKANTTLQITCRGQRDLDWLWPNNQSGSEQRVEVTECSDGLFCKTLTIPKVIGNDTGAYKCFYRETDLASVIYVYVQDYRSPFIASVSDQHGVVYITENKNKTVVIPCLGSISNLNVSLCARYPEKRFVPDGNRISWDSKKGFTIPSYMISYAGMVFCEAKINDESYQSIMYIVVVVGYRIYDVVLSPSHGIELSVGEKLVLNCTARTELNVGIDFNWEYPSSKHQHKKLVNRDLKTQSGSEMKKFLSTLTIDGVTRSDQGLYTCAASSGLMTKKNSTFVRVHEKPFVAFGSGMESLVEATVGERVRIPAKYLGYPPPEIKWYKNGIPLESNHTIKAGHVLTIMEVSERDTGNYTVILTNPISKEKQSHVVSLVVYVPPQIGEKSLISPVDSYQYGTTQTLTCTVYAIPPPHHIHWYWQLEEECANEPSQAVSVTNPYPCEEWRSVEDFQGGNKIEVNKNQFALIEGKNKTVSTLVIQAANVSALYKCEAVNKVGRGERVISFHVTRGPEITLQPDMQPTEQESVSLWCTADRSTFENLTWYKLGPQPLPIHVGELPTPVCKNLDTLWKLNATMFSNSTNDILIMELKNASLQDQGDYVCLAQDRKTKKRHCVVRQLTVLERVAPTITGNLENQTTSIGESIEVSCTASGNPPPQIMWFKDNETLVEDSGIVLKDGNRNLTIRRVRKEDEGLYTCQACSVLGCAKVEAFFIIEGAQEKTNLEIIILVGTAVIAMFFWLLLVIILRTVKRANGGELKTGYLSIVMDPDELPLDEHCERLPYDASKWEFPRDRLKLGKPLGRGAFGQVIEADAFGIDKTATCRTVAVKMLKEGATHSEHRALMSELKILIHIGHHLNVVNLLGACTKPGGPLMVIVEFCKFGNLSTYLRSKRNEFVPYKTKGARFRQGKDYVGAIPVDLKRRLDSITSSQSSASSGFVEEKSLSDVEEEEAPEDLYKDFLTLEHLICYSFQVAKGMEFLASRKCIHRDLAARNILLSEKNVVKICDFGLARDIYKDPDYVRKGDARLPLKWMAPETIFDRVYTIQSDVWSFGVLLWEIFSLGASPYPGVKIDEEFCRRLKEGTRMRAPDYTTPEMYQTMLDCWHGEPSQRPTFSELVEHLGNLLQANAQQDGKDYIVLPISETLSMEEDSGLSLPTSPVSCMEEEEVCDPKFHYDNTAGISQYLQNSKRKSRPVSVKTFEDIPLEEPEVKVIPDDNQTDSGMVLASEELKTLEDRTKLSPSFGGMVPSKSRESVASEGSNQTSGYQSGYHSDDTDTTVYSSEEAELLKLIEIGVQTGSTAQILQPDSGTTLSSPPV

| SMILES | Kd [µM] |
| --- | --- |
| CCOc1cc2ncc(C#N)c(Nc3ccc(F)c(Cl)c3)c2cc1NC(=O)/C=C/CN(C)C [PELITINIB] | > 10 |
| Oc1ccc(-c2nc(-c3ccncc3)c(-c3ccc(F)cc3)[nH]2)cc1 [SB-202190] | > 10 |
| COCC(=O)NC/C=C/c1ccc2ncnc(Nc3ccc(Oc4ccc(C)nc4)c(C)c3)c2c1 [CP-724714] | > 10 |
| NC(=O)c1ccc(-c2nc(-c3ccc4c(c3)OCO4)c(-c3ccccn3)[nH]2)cc1 [SB-431542] | > 10 |

Target: T3, NUAK family SNF1-like kinase 1 (Homo sapiens, UniProt O60285)
T3 sequence (O60285 whole entry): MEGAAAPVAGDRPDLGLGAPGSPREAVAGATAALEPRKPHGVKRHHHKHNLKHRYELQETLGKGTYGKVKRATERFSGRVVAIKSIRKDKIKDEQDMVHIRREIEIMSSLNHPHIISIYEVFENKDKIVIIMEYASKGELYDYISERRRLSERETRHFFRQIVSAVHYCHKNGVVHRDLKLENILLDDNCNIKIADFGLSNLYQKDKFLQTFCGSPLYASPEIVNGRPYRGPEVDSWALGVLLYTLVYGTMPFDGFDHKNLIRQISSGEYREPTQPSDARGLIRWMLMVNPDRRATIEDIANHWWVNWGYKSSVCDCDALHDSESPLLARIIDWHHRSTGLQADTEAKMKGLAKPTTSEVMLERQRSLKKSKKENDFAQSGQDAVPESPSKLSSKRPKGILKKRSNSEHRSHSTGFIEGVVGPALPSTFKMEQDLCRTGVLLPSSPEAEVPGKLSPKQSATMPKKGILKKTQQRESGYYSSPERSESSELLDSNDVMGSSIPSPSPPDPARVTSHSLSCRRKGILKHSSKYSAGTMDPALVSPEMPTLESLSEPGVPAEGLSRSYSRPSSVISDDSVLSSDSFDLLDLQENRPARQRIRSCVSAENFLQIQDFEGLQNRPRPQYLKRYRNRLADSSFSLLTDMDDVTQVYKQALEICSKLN

| SMILES | Kd [µM] |
| --- | --- |
| CCOc1cc2ncc(C#N)c(Nc3ccc(F)c(Cl)c3)c2cc1NC(=O)/C=C/CN(C)C [PELITINIB] | > 10 |
| Oc1ccc(-c2nc(-c3ccncc3)c(-c3ccc(F)cc3)[nH]2)cc1 [SB-202190] | > 10 |
| COCC(=O)NC/C=C/c1ccc2ncnc(Nc3ccc(Oc4ccc(C)nc4)c(C)c3)c2c1 [CP-724714] | > 10 |
| NC(=O)c1ccc(-c2nc(-c3ccc4c(c3)OCO4)c(-c3ccccn3)[nH]2)cc1 [SB-431542] | > 10 |

Target: Tyrosine-protein kinase ABL1 (Homo sapiens, UniProt P00519, Q252H)

| SMILES | Kd [µM] |
| --- | --- |
| Oc1ccc(-c2nc(-c3ccncc3)c(-c3ccc(F)cc3)[nH]2)cc1 [SB-202190] | > 10 |
| COCC(=O)NC/C=C/c1ccc2ncnc(Nc3ccc(Oc4ccc(C)nc4)c(C)c3)c2c1 [CP-724714] | > 10 |
| NC(=O)c1ccc(-c2nc(-c3ccc4c(c3)OCO4)c(-c3ccccn3)[nH]2)cc1 [SB-431542] | > 10 |

Target: T4, Tyrosine-protein kinase receptor TYRO3 (Homo sapiens, UniProt Q06418)
T4 sequence (Q06418 whole entry): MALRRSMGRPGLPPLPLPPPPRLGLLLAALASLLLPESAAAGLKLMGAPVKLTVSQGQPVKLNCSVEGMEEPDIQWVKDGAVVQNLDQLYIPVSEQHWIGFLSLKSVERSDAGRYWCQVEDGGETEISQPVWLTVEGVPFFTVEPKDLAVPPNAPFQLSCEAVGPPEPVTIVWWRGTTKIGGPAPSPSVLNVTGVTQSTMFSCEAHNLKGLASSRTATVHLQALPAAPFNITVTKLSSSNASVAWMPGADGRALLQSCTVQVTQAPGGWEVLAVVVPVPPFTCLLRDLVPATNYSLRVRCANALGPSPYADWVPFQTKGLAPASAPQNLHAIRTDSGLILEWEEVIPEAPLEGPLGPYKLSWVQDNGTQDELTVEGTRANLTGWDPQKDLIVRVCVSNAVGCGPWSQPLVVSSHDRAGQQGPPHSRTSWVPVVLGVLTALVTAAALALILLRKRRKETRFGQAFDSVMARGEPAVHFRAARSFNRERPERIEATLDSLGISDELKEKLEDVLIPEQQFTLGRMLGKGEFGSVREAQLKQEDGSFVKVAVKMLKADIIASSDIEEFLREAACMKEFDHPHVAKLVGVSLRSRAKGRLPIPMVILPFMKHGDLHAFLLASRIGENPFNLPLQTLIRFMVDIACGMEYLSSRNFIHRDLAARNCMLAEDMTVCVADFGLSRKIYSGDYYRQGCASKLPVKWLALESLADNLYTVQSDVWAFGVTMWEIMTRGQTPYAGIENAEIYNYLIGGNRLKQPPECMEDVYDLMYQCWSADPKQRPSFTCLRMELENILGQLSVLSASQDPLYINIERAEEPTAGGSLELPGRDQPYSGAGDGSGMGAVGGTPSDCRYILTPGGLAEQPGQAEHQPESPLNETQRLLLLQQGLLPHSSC

| SMILES | Kd [µM] |
| --- | --- |
| Nc1nc(Nc2ccc(S(N)(=O)=O)cc2)nn1C(=O)c1c(F)cccc1F [JNJ-7706621] | > 10 |
| Oc1ccc(-c2nc(-c3ccncc3)c(-c3ccc(F)cc3)[nH]2)cc1 [SB-202190] | > 10 |
| COCC(=O)NC/C=C/c1ccc2ncnc(Nc3ccc(Oc4ccc(C)nc4)c(C)c3)c2c1 [CP-724714] | > 10 |
| NC(=O)c1ccc(-c2nc(-c3ccc4c(c3)OCO4)c(-c3ccccn3)[nH]2)cc1 [SB-431542] | > 10 |

Target: Mast/stem cell growth factor receptor Kit (Homo sapiens, UniProt P10721, T670I/V559D)
Sequence (P10721 26-976 V559D/T670I limits assumed): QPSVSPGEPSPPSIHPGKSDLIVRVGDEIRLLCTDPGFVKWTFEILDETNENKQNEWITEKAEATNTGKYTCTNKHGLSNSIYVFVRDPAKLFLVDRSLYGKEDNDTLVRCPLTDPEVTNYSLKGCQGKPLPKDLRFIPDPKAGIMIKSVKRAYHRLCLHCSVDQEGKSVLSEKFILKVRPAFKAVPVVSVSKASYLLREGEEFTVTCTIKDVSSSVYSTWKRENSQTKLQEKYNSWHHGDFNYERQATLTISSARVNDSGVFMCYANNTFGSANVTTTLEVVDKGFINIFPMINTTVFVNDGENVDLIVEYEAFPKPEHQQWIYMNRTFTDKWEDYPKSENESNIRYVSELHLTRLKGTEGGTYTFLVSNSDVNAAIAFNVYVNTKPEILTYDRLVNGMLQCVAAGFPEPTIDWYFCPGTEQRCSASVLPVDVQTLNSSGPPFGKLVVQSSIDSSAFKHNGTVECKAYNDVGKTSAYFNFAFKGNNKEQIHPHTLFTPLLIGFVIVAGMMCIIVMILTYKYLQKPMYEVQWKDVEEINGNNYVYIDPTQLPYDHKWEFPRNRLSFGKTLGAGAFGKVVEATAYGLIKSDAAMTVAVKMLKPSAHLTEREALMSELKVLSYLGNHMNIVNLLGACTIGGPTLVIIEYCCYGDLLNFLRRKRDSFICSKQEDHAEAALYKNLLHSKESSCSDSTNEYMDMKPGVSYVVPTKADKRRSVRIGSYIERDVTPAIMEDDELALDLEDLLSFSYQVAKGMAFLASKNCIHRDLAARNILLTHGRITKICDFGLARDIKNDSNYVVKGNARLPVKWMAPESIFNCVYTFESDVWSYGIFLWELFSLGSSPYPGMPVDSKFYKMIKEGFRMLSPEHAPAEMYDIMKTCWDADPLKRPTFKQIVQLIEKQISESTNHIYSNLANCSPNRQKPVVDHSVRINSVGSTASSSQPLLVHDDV

| SMILES | Kd [µM] |
| --- | --- |
| CCOc1cc2ncc(C#N)c(Nc3ccc(F)c(Cl)c3)c2cc1NC(=O)/C=C/CN(C)C [PELITINIB] | > 10 |
| Oc1ccc(-c2nc(-c3ccncc3)c(-c3ccc(F)cc3)[nH]2)cc1 [SB-202190] | > 10 |
| COCC(=O)NC/C=C/c1ccc2ncnc(Nc3ccc(Oc4ccc(C)nc4)c(C)c3)c2c1 [CP-724714] | > 10 |
| NC(=O)c1ccc(-c2nc(-c3ccc4c(c3)OCO4)c(-c3ccccn3)[nH]2)cc1 [SB-431542] | > 10 |
